Like-named read-outs stand apart in the source and are kept apart here. Values belong to the substance of their own block, whether it stands above or below them. Numbered stars: 1 amine (or outer) side, 2 acyl side, 3 side chain; on linkers, the order of the positions; unused ones are H or OH. Square brackets hold non-standard residues; d marks the D form. Side chains are listed from the residue outwards. * marks the point of attachment. C20 diacid = O=C(O)CCCCCCCCCCCCCCCCCCC(=O)*; C18 diacid = O=C(O)CCCCCCCCCCCCCCCCC(=O)*; C16 diacid = O=C(O)CCCCCCCCCCCCCCC(=O)*; γGlu = O=C(O)[C@H](CCC(=O)[*:2])N[*:1]; AEEA = NCCOCCOCC(=O)O; Aib = CC(C)(N)C(=O)O
Tests used:
[1] = target: T1, human GLP-1 receptor (hGLP-1R) (Homo sapiens, UniProt P43220); assay: GLP-1 receptor assay, method A (CRE-luciferase reporter, BHK cells); assay type: cell-based
T1 construct: expressed in transfected cells
T1 sequence (P43220 24-463): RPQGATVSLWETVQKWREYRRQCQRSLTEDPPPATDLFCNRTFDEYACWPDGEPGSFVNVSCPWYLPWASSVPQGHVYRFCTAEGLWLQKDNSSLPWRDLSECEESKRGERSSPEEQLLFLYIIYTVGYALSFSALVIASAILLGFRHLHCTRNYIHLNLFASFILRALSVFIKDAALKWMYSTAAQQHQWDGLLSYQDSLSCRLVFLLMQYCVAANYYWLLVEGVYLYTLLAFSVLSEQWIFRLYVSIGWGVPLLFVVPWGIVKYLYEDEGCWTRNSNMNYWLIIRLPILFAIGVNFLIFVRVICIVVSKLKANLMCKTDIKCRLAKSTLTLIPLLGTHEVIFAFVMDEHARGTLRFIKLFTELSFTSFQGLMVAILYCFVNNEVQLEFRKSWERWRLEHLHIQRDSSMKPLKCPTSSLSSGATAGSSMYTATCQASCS
Outline: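 In this CRE-luciferase reporter assay, the human receptor was expressed in BHK cells, and cAMP signalling was followed after a 3 h stimulation at 37° C. The buffer contained 1% (w/v) ovalbumin, and testing was done with and without 1% (w/v) human serum albumin.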

[2] = target: T2, human GIP receptor (hGIPR) (Homo sapiens, UniProt P48546); assay: GIP receptor assay, method A (CRE-luciferase reporter, BHK cells); assay type: cell-based
T2 construct: expressed in transfected cells
T2 sequence (P48546 22-466): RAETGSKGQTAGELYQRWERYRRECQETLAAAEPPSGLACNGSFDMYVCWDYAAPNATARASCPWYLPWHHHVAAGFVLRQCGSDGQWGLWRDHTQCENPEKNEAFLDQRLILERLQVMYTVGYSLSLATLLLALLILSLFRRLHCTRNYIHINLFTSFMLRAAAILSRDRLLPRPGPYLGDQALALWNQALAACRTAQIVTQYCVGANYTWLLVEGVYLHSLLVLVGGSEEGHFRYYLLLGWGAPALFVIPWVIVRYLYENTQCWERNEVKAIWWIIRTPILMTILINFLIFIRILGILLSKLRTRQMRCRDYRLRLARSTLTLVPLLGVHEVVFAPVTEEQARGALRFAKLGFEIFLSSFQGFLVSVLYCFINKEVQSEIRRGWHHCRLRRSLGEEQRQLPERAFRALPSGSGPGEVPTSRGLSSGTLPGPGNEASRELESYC
Outline: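 BHK cells co-expressing hGIPR and a CRE-luciferase reporter, plated 21-23 h before assay, stimulated 3 h at 37 °C with compounds (7-point 10-fold titration, duplicates) in ovalbumin-containing DMEM buffer with or without 1% HSA final. Luminescence read; EC50 (pM) from four-parameter logistic fit with shared Hill slope.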

[3] = Chemical stability assessment in formulation (UPLC-UV-MS purity loss at 37° C.); assay type: physicochemical; settings: 8 mM phosphate buffer pH 7.4, 1 mg/mL, 2 weeks
Outline: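 Peptides at target 1 mg/mL in 8 mM phosphate buffer, pH adjusted to 7.4, incubated in capped vials at 37° C. and sampled over 2 weeks, frozen until analysis. Purity followed by UPLC-UV-MS with a 0.1% formic acid water/acetonitrile gradient.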

[4] = hGLP-1R Potency, 1% HSA, EC50, method A, in the presence of 1% HSA
[5] = method A, absence of HSA, read-out: hGLP-1R Potency, no HSA, EC50
[6] = hGIPR Potency, 1% HSA, EC50, method A, in the presence of 1% HSA
[7] = method A, absence of HSA, read-out: hGIPR Potency, no HSA, EC50

Substance: Y[Aib]EGTFTSDYSILLEEQAAREFIEWLLAGGPSK([AEEA-AEEA-γGlu-C18 diacid])GEASHLSTAQTARLSAELHELATLPRTETGSGSP-NH2 [Compound 35]
EC50 [1, 5]: 0.0233 nM | EC50 [2, 7]: 0.00197 nM | Purity loss per week at 37° C. [3]: 0.3%

Substance: Y[Aib]EGTFTSDYSILLEEQAAREFIEWLLAGGPSSGEASHLSTAQTQRLSAK([AEEA-AEEA-γGlu-C18 diacid])LHRLATLPRTETGSGSP-NH2 [Compound 79]
EC50 [1, 4]: 0.168 nM | EC50 [1, 5]: 0.0387 nM | EC50 [2, 6]: 0.0247 nM | EC50 [2, 7]: 0.0047 nM | Purity loss per week at 37° C. [3]: 1.3%

Substance: Y[Aib]EGTFTSDYSILLEEQAAREFIEWLLAGGPSSGALQAPGQAPLASHLSTAQTQRLSAELHK([AEEA-AEEA-γGlu-C20 diacid])LATLPRTETGSGSP-NH2 [Compound 99]
EC50 [1, 4]: 0.0362 nM | EC50 [1, 5]: 0.0167 nM | EC50 [2, 6]: 0.00741 nM | EC50 [2, 7]: 0.00209 nM

Substance: Y[Aib]EGTFTSDYSILLEEQAAREFIEWLLAGGPSSGAGQAPGQAPGASHLSTAQTQRLSAELHK([AEEA-AEEA-γGlu-C20 diacid])LATLPRTETGSGSP-NH2 [Compound 115]
Purity loss per week at 37° C. [3]: 1.1%

Substance: Y[Aib]EGTFTSDYSILLEEQAAREFIEWLLAGGPSSGAGQAPGQAPGASHLSTAQTQRLSAK([AEEA-AEEA-γGlu-C18 diacid])LHRLATLPRTETGSGSP-NH2 [compound 55]
EC50 [1, 4]: 0.0453 nM | EC50 [1, 5]: 0.023 nM | EC50 [2, 6]: 0.0103 nM | EC50 [2, 7]: 0.003 nM

Substance: Y[Aib]EGTFTSDYSILLEEQAAREFIEWLLAGGPSSGAGQAPGQAPLASHLSTAQTQRLSAELHK([AEEA-AEEA-γGlu-C18 diacid])LATLPRTETGSGSP-NH2 [compound 58]
EC50 [1, 4]: 0.0256 nM | EC50 [1, 5]: 0.0127 nM | EC50 [2, 6]: 0.00758 nM | EC50 [2, 7]: 0.00188 nM

Substance: Y[Aib]EGTFTSDYSILLEEQAAREFIEWLLAGGPSK([AEEA-AEEA-γGlu-C16 diacid])GAPPPSGGGEASELSTAALGRLSAELHELATLPRTETGSGSP-NH2 [compound 10]
potency ratio (A/B): highest EC50 divided by lowest EC50 over hGLP-1R, hGIPR, hAMYR3 ([1]; absence of HSA, <50 = balanced tri-agonist): 7 | EC50 [1, 4]: 0.246 nM | EC50 [1, 5]: 0.0138 nM | EC50 [2, 6]: 0.0424 nM | EC50 [2, 7]: 0.00211 nM

Substance: Y[Aib]EGTFTSDYSILLEEQAAREFIEWLLAGGPSSGAPPPSGGGEASHLSTAQTQRLSAK([AEEA-AEEA-γGlu-C18 diacid])LHRLATLPRTETGSGSP-NH2 [Compound 109]
EC50 [1, 4]: 0.0947 nM | EC50 [1, 5]: 0.0689 nM | EC50 [2, 6]: 0.0174 nM | EC50 [2, 7]: 0.00742 nM

Substance: Y[Aib]EGTFTSDYSILLEEQAAREFIEWLLAGGPSSGAGQAPGASHLSTAQTQRLSAELHK([AEEA-AEEA-γGlu-C18 diacid])LATLPRTETGSGSP-NH2 [Compound 97]
EC50 [1, 4]: 0.109 nM | EC50 [1, 5]: 0.0161 nM | EC50 [2, 6]: 0.00838 nM | EC50 [2, 7]: 0.0023 nM

Substance: Y[Aib]EGTFTSDYSILLEEQAAREFIEWLLAGGPSK([AEEA-AEEA-γGlu-C16 diacid])GEASELSTAALGRLSAELHELATLPRTETGSGSP-NH2 [Compound 11]
EC50 [1, 4]: 0.204 nM | EC50 [1, 5]: 0.0104 nM | EC50 [2, 6]: 0.0583 nM | EC50 [2, 7]: 0.00169 nM

Substance: Y[Aib]EGTFTSDYSILLEEQAAREFIEWLLAGGPSRGEASHLSTAQTQRLSAELHK([AEEA-AEEA-γGlu-C18 diacid])LATLPRTETGSGSP-NH2 [compound 68]
EC50 [1, 4]: 0.0519 nM | EC50 [1, 5]: 0.0121 nM | EC50 [2, 6]: 0.0119 nM | EC50 [2, 7]: 0.00183 nM

Substance: Y[Aib]EGTFTSDYSILLEEQAAREFIEWLLAGGPSK([AEEA-AEEA-γGlu-C18 diacid])GGQAPGQAPGEASHLSTAQTQRLSAELHELATLPRTETGSGSP-NH2 [Compound 38]
EC50 [1, 4]: 2.35 nM | EC50 [1, 5]: 0.012 nM | EC50 [2, 6]: 0.336 nM | EC50 [2, 7]: 0.00137 nM

Substance: Y[Aib]EGTFTSDYSILLEEQAAREFIEWLLAGGPSSGAGQAPGQAPGASHLSTAQTQRLSAELHK([AEEA-AEEA-γGlu-C18 diacid])LATLPRTETGSGSP-NH2 [compound 52]
EC50 [1, 4]: 0.0269 nM | EC50 [1, 5]: 0.011 nM | EC50 [2, 6]: 0.00679 nM | EC50 [2, 7]: 0.00183 nM

Substance: Y[Aib]EGTFTSDYSILLEEQAAREFIEWLLAGGPSK([AEEA-AEEA-γGlu-C18 diacid])GEASELSTAALGRLSAELHELATLPRTETGSGSP-NH2 [Compound 26]
EC50 [1, 4]: 1.68 nM | EC50 [1, 5]: 0.0207 nM | EC50 [2, 6]: 0.558 nM | EC50 [2, 7]: 0.00175 nM

Substance: H[Aib]HGTFTSDYSILLEEQAAREFIEWLLAGGPSK([AEEA-AEEA-γGlu-C18 diacid])GAPPPSGGGEASHLSTAQTARLSAELHQLATLPRTETGSGSP-NH2 [compound 101]
EC50 [1, 4]: 0.179 nM | EC50 [1, 5]: 0.00324 nM | EC50 [2, 6]: 0.129 nM | EC50 [2, 7]: 0.00187 nM

Substance: Y[Aib]EGTFTSDYSILLEEQAAREFIEWLLAGGPSSGAPPPSGGGEASHLSTAQTQRLSAK([AEEA-AEEA-γGlu-C20 diacid])LHRLATLPRTETGSGSP-NH2 [Compound 110]
EC50 [1, 4]: 0.169 nM | EC50 [1, 5]: 0.107 nM | EC50 [2, 6]: 0.0293 nM | EC50 [2, 7]: 0.00801 nM

Results, then the substance that gave them:

EC50 [1, 4]: 0.0393 nM | EC50 [1, 5]: 0.00849 nM | EC50 [2, 6]: 0.0386 nM | EC50 [2, 7]: 0.00726 nM
Substance: H[Aib]HGTFTSDYSILLEEQAAREFIEWLLAGGPSSGEASHLSTAALGRLSAK([AEEA-AEEA-γGlu-C18 diacid])LHRLATLPRTETGSGSP-NH2 [Compound 87]

EC50 [1, 4]: 0.101 nM | EC50 [1, 5]: 0.00477 nM | EC50 [2, 6]: 0.0632 nM | EC50 [2, 7]: 0.0016 nM | Purity loss per week at 37° C. [3]: 3.7%
Substance: H[Aib]HGTFTSDYSILLEEQAAREFIEWLLAGGPSK([AEEA-AEEA-γGlu-C18 diacid])GEASQLSTAALGRLSAELHTLATLPRTETGSGSP-NH2 [Compound 63]

EC50 [1, 4]: 0.0204 nM | EC50 [1, 5]: 0.00345 nM | EC50 [2, 6]: 0.00805 nM | EC50 [2, 7]: 0.0019 nM
Substance: H[Aib]HGTFTSDYSILLEEQAAREFIEWLLAGGPSRGEASHLSTAQTQRLSAELHK([AEEA-AEEA-γGlu-C18 diacid])LATLPRTETGSGSP-NH2 [Compound 69]

EC50 [1, 4]: 0.208 nM | EC50 [1, 5]: 0.00319 nM | EC50 [2, 6]: 0.226 nM | EC50 [2, 7]: 0.00196 nM
Substance: H[Aib]HGTFTSDYSILLEEQAAREFIEWLLAGGPSK([AEEA-AEEA-γGlu-C18 diacid])GEASHLSTAQTARLSAELHELATLPRTETGSGSP-NH2 [Compound 36]

EC50 [1, 4]: 0.0242 nM | EC50 [1, 5]: 0.00345 nM | EC50 [2, 6]: 0.0191 nM | EC50 [2, 7]: 0.0037 nM
Substance: H[Aib]HGTFTSDYSILLEEQAAREFIEWLLAGGPSSGEASHLSTAQTQRLSAK([AEEA-AEEA-γGlu-C18 diacid])LHRLATLPRTETGSGSP-NH2 [Compound 82]

EC50 [1, 4]: 0.238 nM | EC50 [1, 5]: 0.00274 nM | EC50 [2, 6]: 0.485 nM | EC50 [2, 7]: 0.00427 nM
Substance: H[Aib]HGTFTSDYSILLEEQAAREFIEWLLAGGPSK([AEEA-AEEA-γGlu-C20 diacid])GAPPPSGGGEASELSTAALGRLSAELHELATLPRTETGSGSP-NH2 [Compound 16]

EC50 [1, 4]: 0.0759 nM | EC50 [1, 5]: 0.00205 nM | EC50 [2, 6]: 0.254 nM | EC50 [2, 7]: 0.00584 nM
Substance: H[Aib]HGTFTSDYSILLEEQAAREFIEWLLAGGPSK([AEEA-AEEA-γGlu-C18 diacid])GAPPPSGGGGASELSTAALGRLSAELHRLATLPRTETGSGSP-NH2 [Compound 14]

EC50 [1, 4]: 0.0295 nM | EC50 [1, 5]: 0.00386 nM | EC50 [2, 6]: 0.0306 nM | EC50 [2, 7]: 0.00647 nM
Substance: H[Aib]HGTFTSDYSILLEEQAAREFIEWLLAGGPSSGEASHLSTAALGRLSAELHRLK([AEEA-AEEA-γGlu-C18 diacid])TLPRTETGSGSP-NH2 [Compound 89]

— patent US20260174875A1 (Novo Nordisk A/S, priority 2023, published 2026)
